Experimental data published in US7683179B2, “Lercanidipine salts” (Recordati Ireland Limited, priority 2004, dated 2010).
Entries after “also recorded” stand apart in the source; their conditions may differ. Where a name gives a salt, the structure may show the parent alone. Read-outs that look alike come from different tables or passages of the source.

How the values were obtained:
Format in all cases: physicochemical
[1] = Solubility by UV-Visible spectroscopy in aqueous 0.1 M HCl (pH 1) at 22° C.; conditions: for solubility at 24 h: 22 °C, pH 1, simulated gastric fluid, thermodynamic from solid; for solubility: pH 1
Description: The solubility of crystalline lercanidipine besylate, napadisylate and hydrochloride and amorphous lercanidipine besylate was evaluated by UV-Visible spectroscopy in aqueous 0.1 M HCl (pH 1) at 22° C. Suspensions of approximately 0.3 mg/ml of the respective compounds were prepared in an aqueous 0.1 M HCl and equilibrated by shaking for 24 hours. Following equilibration, the samples were filtered (0.1 μm filter) and the concentration was determined photometrically using Perkin Elmer Lambda 16 (Überlingen, Germany). Reference measurements were performed with 20% acetonitrile as a co-solvent.

[2] = Hygroscopicity by DVS analysis (water absorption analyzer); conditions: humidity cycling between 0 and 95% RH at 25° C.
Description: The hygroscopicity of both amorphous and crystalline lercanidipine salts was determined by DVS analysis using a water absorption analyzer (Surface Measurement System Ltd., Marion, Buckinghamshire, UK). The analysis were carried out according to the following conditions: 10-15 mg of sample were placed on a quartz or platinum holder, the holder was placed in-turn on a microbalance, and the sample underwent humidity cycling between 0 and 95% relative humidity (RH) at 25° C. (50-95-0-95-0-50% at a rate of 5% RH/hr).

[3] = Stability of crystalline salts (statement, no method)

Q: For `COC(=O)C1=C(C)NC(C)=C(C(=O)OC(C)(C)CN(C)CCC(c2ccccc2)c2ccccc2)C1c1cccc([N+](=O)[O-])c1` (stereo not shown) [Crystalline hydrochloride, lercanidipine hydrochloride, reference compound], which solubility at 24 h ([1]; Solubility) is on record?
A: 10 µg/mL

Q: And the solubility at 24 h ([1]; solubility in 0.1 N HCl)?
A: ~10 µg/mL

Q: What does the source list for `COC(=O)C1=C(C)NC(C)=C(C(=O)OC(C)(C)CN(C)CCC(c2ccccc2)c2ccccc2)C1c1cccc([N+](=O)[O-])c1.COC(=O)C1=C(C)NC(C)=C(C(=O)OC(C)(C)CN(C)CCC(c2ccccc2)c2ccccc2)C1c1cccc([N+](=O)[O-])c1.O=S(=O)(O)c1cccc2c(S(=O)(=O)O)cccc12` (stereo not shown) [Crystalline napadisylate, lercanidipine napadisylate]?
A: solubility compared with other salt forms [1]: lower solubility than the amorphous salt; solubility in 0.1 M HCl at 22° C. [1]: about 3.5 mg/L; solubility [1]: 3.5 µg/mL; Hygroscopicity [2]: hygroscopic; stability [3]: good stability

Q: For “lercanidipine besylate [Amorphous besylate]”, which solubility [1] is on record?
A: 155 µg/mL

Q: And the Hygroscopicity [2]?
A: non-hygroscopic

Q: Which “solubility compared with other salt forms” value ([1]; 0.1 M / 0.1 N HCl, comparison in words) does the source give for “lercanidipine besylate [Crystalline besylate]” here?
A: lower solubility than the amorphous salt; also recorded: substantially more soluble than either crystalline hydrochloride or napadisylate

Q: And the “solubility in 0.1 M HCl at 22° C.” value ([1]; 0.1 M HCl, 22° C.)?
A: about 87 mg/L

Q: And the Hygroscopicity [2]?
A: non-hygroscopic

Q: What about the stability [3] of the same compound?
A: good stability
